According to patent US10401298B2, “Label-free detection of small and large molecule interactions, and activities in biological systems” (Arizona Board of Regents on behalf of Arizona State …, priority 2014, dated 2019):
Like-named read-outs stand apart in the source and are kept apart here.

Assays:
[1] = tested on: wild type SH-EP1 cells; experiment: Control: response of wild type SH-EP1 cells (no nAChRs expressed) to acetylcholine; assay type: binding, human; settings: wild type SH-EP1 cells without nAChRs, 500 nM acetylcholine
Text: H are shown. The scale bar is 20 μm.
Curve 370 represents the measurements for cell G and lighter curve 370 represents the measurements for cell H.

[2] = biological target: human α4β2 nicotinic acetylcholine receptors (nAChRs) (Homo sapiens, UniProt P17787+P43681); settings: FIG. 5F, 100 nM Acetylcholine
human α4β2 nicotinic acetylcholine receptors (nAChRs), sequence (P43681 29-627 limits assumed): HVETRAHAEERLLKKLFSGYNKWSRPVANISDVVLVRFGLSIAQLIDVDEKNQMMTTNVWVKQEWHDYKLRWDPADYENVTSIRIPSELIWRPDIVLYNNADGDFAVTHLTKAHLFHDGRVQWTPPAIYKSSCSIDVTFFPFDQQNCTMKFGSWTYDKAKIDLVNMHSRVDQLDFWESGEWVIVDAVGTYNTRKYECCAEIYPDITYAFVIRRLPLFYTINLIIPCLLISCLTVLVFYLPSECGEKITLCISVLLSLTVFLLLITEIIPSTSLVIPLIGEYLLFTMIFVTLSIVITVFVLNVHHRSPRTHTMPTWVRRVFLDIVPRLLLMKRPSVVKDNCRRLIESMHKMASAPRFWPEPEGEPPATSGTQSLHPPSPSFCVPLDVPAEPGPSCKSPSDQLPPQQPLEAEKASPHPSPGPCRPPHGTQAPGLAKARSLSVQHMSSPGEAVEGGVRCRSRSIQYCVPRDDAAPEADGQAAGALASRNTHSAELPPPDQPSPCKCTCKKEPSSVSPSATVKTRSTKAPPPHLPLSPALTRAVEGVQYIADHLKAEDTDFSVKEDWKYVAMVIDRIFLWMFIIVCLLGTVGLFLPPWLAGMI
human α4β2 nicotinic acetylcholine receptors (nAChRs), sequence (P17787 26-502): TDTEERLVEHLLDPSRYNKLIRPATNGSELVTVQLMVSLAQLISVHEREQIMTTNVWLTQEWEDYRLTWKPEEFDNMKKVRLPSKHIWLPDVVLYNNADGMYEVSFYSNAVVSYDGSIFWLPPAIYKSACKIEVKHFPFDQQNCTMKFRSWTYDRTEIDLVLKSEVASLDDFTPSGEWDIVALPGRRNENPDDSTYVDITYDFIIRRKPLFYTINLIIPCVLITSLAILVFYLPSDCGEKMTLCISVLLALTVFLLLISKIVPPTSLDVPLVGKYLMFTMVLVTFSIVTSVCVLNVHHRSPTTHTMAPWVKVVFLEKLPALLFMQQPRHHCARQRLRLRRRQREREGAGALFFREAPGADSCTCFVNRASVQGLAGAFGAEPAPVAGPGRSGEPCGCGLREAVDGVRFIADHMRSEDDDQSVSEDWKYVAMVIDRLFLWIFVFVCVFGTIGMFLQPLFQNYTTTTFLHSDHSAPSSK
Text: The edge of a cell 5 can be manually defined from the optical image of the cell, but an imaging processing algorithm can automatically detect the cell edge, providing high throughput. After determining the cell edge, a region of interest (ROI) is selected at a location of the cell edge. The ROI can be a rectangular shape30 with the cell edge 32 passing through the center portion of the rectangle, dividing the rectangle into two equal halves, one half 34 is inside of the cell, and the second half 36 falls outside of the cell. We denote the intensities of the two halves of the differential image as A and B, and (A−B)/(A+B) is calculated and used to determine the movement of the cell edge at each location. […]
The relation between the cell edge movement and the measured differential image intensity change from one of the above differential optical detection method can be determined as below. […] The edge of one cell is manually chosen and the centroid (O) of the cell is determined (FIGS. 1B and 1C). […] The cell edge movement was calculated at every 10 starting from 0 (FIG. 1E). The ROI at a certain point of the cell edge (point A) is then shifted by different numbers of pixels outwards (perpendicular to the tangential line at point A), and the corresponding changes in the differential image intensity is determined from the image. […]

**Q.** Which “deformation in the cell membrane” value [1] does the source give for `CC(=O)OCC[N+](C)(C)C.[Cl-]` [acetylcholine, acetylcholine chloride] here?
**A.** no deformation

**Q.** And the “amount of cell membrane deformation after acetylcholine binding” value ([2]; lower end of range, at region 592)?
**A.** about −40 nm

**Q.** What about the “amount of cell membrane deformation after acetylcholine binding” value ([2]; upper end of range, at arrow 590) of the same molecule?
**A.** about 80 nm
